Assay results from patent publication US20260176290A1, “INHIBITORS OF KRAS(G12D)” (Ranok Therapeutics (Hangzhou) Co. Ltd., priority 2022, published 2026).

What was measured:
[1] = system: A-427 lung carcinoma cells [heterozygous G12D]; assay: Cancer cell line proliferation (CellTiter-Glo), A-427; assay type: cell-based; settings: Homo sapiens, A427 cells, 72 hr, read-out: CTG(IC50), ABS-72 H(nM) A427
Experimental: (§1) The following cancer cell lines were employed: AGS gastric carcinoma [heterozygous G12D] (ATCC, CRL-1739); A-427 lung carcinoma [heterozygous G12D] (ATCC, HTB-53); ASPC1 pancreatic adenocarcinoma [homozygous G12D] (ATCC, CRL-1682) and SW1990 pancreatic adenocarcinoma [homozygous G12D] (ATCC CRL-2172). Cell lines were cultured essentially according to ATCC recommendations.
(§2) AGS, A-427, ASPC1, SW1990, and GP2D cells were plated in 96-well tissue culture plates at 4,000 cells/well and incubated at 37° C./5% CO2 for 72 hr in 100 μl of media. 3-fold serial dilutions of each test compound were prepared ranging from 20 μM to 1.02 nM. Each cell line was then treated with test compounds at various concentrations with a final concentration of 0.5% DMSO/well, and then incubated at 37° C./5% CO2 for 72 hr. 100 μl of CellTiter-Glo® Reagent (Promega Corporation, Madison, WI) was added to each well and processed according manufacturer's protocol. Results were analyzed and IC50 5 values were calculated in GraphPad 7 software.

[2] = system: ASPC1 pancreatic adenocarcinoma cells [homozygous G12D]; assay: Cancer cell line proliferation (CellTiter-Glo), ASPC1; assay type: cell-based; settings: Homo sapiens, ASPC-1 cells, 72 hr, read-out: CTG(IC50), ABS-72 H(nM) ASPC-1
Experimental: as §1, §2

KRAS (G12D)/SOS1 = target: T1, KRAS (G12D)/SOS1 (Homo sapiens, UniProt P01116, G12D); assay: KRAS (G12D)/SOS1 homogeneous time-resolved fluorescence (HTRF) assay; assay type: binding; settings: absence of GTP, 4° C. for 3 hr
T1 construct: purchased Cisbio 63ADK000CB17PEH
Experimental: 3-fold serial dilutions of each test compound were prepared ranging from 20 μM to 1.02 nM. The test compound was mixed and incubated with reaction components, incubated in a sealed plate at 4° C. for 3 hr and fluorescence was measured using a PerkinElmer Envision plate reader. […]

[3] = system: SW1990 pancreatic adenocarcinoma cells [homozygous G12D]; assay: Cancer cell line proliferation (CellTiter-Glo), SW1990; assay type: cell-based; settings: Homo sapiens, 72 hr, read-out: CTG(IC50), ABS-72 H(nM) SW1990
Experimental: as §1, §2

[4] = system: AGS gastric carcinoma cells [heterozygous G12D]; assay: Cancer cell line proliferation (CellTiter-Glo), AGS; assay type: cell-based; settings: Homo sapiens, 72 hr, read-out: CTG(IC50), ABS-72 H(nM) AGS
Experimental: as §1, §2

[5] = Oral bioavailability in CD-1 mice; settings: male, CD-1, mouse, blood
Experimental: CD-1 mice were randomly assigned to 6 groups with 3 male mice in each compound group. […] Compounds were orally administered (PO) in a single dose to each mouse in its group. Blood samples were taken within 72 hours. Bioavailability (F %) was determined and by liquid chromatography-mass spectrometry (LC-MS/MS).

T1 sequence (P01116 1-188 isoform P01116-2 G12D): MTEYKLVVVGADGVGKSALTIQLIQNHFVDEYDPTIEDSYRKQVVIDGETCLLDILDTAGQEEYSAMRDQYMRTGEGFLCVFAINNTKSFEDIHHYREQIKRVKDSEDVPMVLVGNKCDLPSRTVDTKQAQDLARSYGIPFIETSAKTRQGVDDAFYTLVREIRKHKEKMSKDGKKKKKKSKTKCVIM

SMILES	IC50 [1] [nM]	IC50 [2] [nM]	IC50 (KRAS (G12D)/SOS1) [nM]	IC50 [3] [nM]	IC50 [4] [nM]	bioavailability ([5]; 25 mg/kg) [%]	bioavailability [5] [%]
C#Cc1c(F)ccc2cc(O)cc(-c3nc(C)c4c(N5CC6CCC(C5)N6)nc(OCC5(CN6CCC(C(F)(F)F)CC6)CC5)nc4c3F)c12 [Example 39]	100 to 1000	< 100	< 100	< 100	< 100		
C#Cc1c(F)ccc2cc(O)cc(-c3ncc4c(N5CC6CCC(C5)N6)nc(OCC5(CN6CCC(S(=O)(=O)N(C)C)CC6)CC5)nc4c3F)c12 [Example 25]	> 1000	100 to 1000	< 100	100 to 1000	< 100		
C#Cc1c(F)ccc2cc(O)cc(-c3nc(OC)c4c(N5CC6CCC(C5)N6)nc(OCC5(CN6CCC6)CC5)nc4c3F)c12 [Ref. 2, reference compound]		100 to 1000	< 100	100 to 1000	< 100	0.15	
C#Cc1c(F)ccc2cc(O)cc(-c3nc(OC)c4c(N5CC6CCC(C5)N6)nc(OCC5(CN6CCC(C#N)C6)CC5)nc4c3F)c12 (stereo not drawn) [Example 38]		< 100	< 100	< 100	< 100		1.8
C#Cc1cccc2cc(O)cc(-c3ncc4c(N5CC6CCC(C5)N6)nc(OCC5(CN6CCC(F)CC6)CC5)nc4c3F)c12 [Example 7]	< 100	< 100	< 100	< 100	< 100		
C#Cc1c(F)ccc2cc(O)cc(-c3nc(OC4CC4)c4c(N5CC6CCC(C5)N6)nc(OCC5(CN6CCC(C(F)(F)F)CC6)CC5)nc4c3F)c12 [Example 31]	100 to 1000	< 100	< 100	< 100	< 100		
C#Cc1c(F)ccc2cc(O)cc(-c3ncc4c(N5CC6CCC(C5)N6)nc(OCC5(CN6CC7CC7(C#N)C6)CC5)nc4c3F)c12 (stereo not drawn) [Example 21]	100 to 1000	100 to 1000	< 100	< 100	< 100		
C#Cc1c(F)ccc2cc(O)cc(-c3nc(OC)c4c(N5CC6CCC(C5)N6)nc(OCC5(CN6CCC(C(F)(F)F)CC6)CC5)nc4c3F)c12 [Example 3]	< 100	< 100	< 100	< 100	< 100		
C#Cc1c(F)ccc2cc(O)cc(-c3ncc4c(N5CC6CCC(C5)N6)nc(OCC5(CN6CCC(OC(F)(F)F)CC6)CC5)nc4c3F)c12 [Example 20]	100 to 1000	< 100	< 100	< 100	< 100		
C#Cc1c(F)ccc2cc(O)cc(-c3nc(OC)c4c(N5CC6CCC(C5)N6)nc(OCC5(CN6CCOCC6)CC5)nc4c3F)c12 [Example 33]	100 to 1000	< 100	< 100	< 100	< 100		
C#Cc1c(F)ccc2cc(O)cc(-c3nc(OC)c4c(N5CC6CCC(C5)N6)nc(OCC5(CN6CC7CC7C6)CC5)nc4c3F)c12 (stereo not drawn) [Example 2]	< 100	< 100	< 100	< 100	< 100		
C#Cc1c(F)ccc2cc(O)cc(-c3ncc4c(N5CC6CCC(C5)N6)nc(OCC5(CN6CCC7(CC6)OCCO7)CC5)nc4c3F)c12 [Example 24]	100 to 1000	> 1000	< 100	< 100	< 100		
C#Cc1c(F)ccc2cc(O)cc(-c3nc(OC)c4c(N5CC6CCC(C5)N6)nc(OCC5(CN(C)C)CC5)nc4c3F)c12 [Ref. 4, reference compound]					< 100		0.23
[2H]C([2H])([2H])Oc1nc(-c2cc(O)cc3ccc(F)c(C#C)c23)c(F)c2nc(OCC3(CN4CCC(C(F)(F)F)CC4)CC3)nc(N3CC4CCC(C3)N4)c12 [Example 30]	< 100	< 100	< 100	< 100	< 100		
C#Cc1cccc2cc(O)cc(-c3ncc4c(N5CC6CCC(C5)N6)nc(OCC5(CN6CC[C@H](F)C6)CC5)nc4c3F)c12 [Example 8]	< 100	< 100	< 100	< 100	< 100		
